Test systems include NCI-H23 lung; HL-60(TB) leukemia; NCI-H460 lung; MOLT-4 leukemia; MDA-MB-231 breast; NCI-H522 lung; DU-145 prostate; SF-295 CNS; HS 578T breast; A498 renal.
What all share (experiment): NCI tumour cell line growth inhibition, 48 h

SMILES strings stand for the structures.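 Briefly, cells in 96-well plates were exposed to five compound concentrations for 48 h, and endpoints were estimated by linear interpolation. GI50 marks 50% less growth. Definition used: TGI = concentration required for complete inhibition of growth.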

Our source for the TGI and GI50 values is PubChem BioAssay (NCI).

For `Cc1ccc([N+](=O)[O-])c2c(NCCNC(=O)c3cc(C(=O)NCCNc4ccnc5c(C)ccc([N+](=O)[O-])c45)n(C)n3)ccnc12`, the TGI is above 100 µM with NCI-H23 lung; above 76.1 µM with HL-60(TB) leukemia; above 100 µM in the assay on NCI-H460 lung; above 46.4 µM in the assay on MOLT-4 leukemia; above 84.8 µM in the assay with MDA-MB-231 breast; above 100 µM in the assay on NCI-H522 lung. The TGI with DU-145 prostate, in the assay with SF-295 CNS, in the assay with HS 578T breast and in the assay with A498 renal was above 100 µM in each case.

For `CNCCCNc1nc2ccccc2c2c(=O)c3cc(OC)ccc3sc12`, the GI50 in the assay on NCI-H23 lung was 1.7 µM; in the assay with HL-60(TB) leukemia, 1.95 µM; in the assay with NCI-H460 lung, 1.67 µM; with MOLT-4 leukemia, 2.06 µM; in the assay on MDA-MB-231 breast, 1.52 µM; in the assay on NCI-H522 lung it was 1.84 µM. Besides, the GI50 in the assay on DU-145 prostate was 1.78 µM; in the assay with SF-295 CNS, 1.82 µM; in the assay with HS 578T breast, 1.94 µM; in the assay on A498 renal it was 2.25 µM. Besides, the TGI came to 3.19 µM in the assay with NCI-H23 lung; 4.04 µM in the assay on HL-60(TB) leukemia; 3.13 µM in the assay on NCI-H460 lung; 4.41 µM in the assay on MOLT-4 leukemia; 2.98 µM in the assay on MDA-MB-231 breast; 3.88 µM in the assay with NCI-H522 lung. The TGI in the assay with DU-145 prostate is 3.23 µM; in the assay with SF-295 CNS, 3.34 µM; in the assay on HS 578T breast, 4.77 µM; in the assay with A498 renal, 8.72 µM.

With `O=C(Nc1ccccc1I(=O)=O)C1CCCCC1`, the GI50 with NCI-H23 lung is above 100 µM; in the assay on HL-60(TB) leukemia, 57.6 µM; in the assay on NCI-H460 lung, above 100 µM; in the assay on MOLT-4 leukemia it was 98.5 µM; with MDA-MB-231 breast, above 100 µM; in the assay on NCI-H522 lung, above 100 µM. Moreover, the GI50 with DU-145 prostate, with SF-295 CNS, in the assay on HS 578T breast and in the assay on A498 renal was above 100 µM throughout. Further, the TGI in the assay on NCI-H23 lung, in the assay with HL-60(TB) leukemia, with NCI-H460 lung, in the assay on MOLT-4 leukemia, in the assay on MDA-MB-231 breast and in the assay with NCI-H522 lung was above 100 µM throughout. Besides, the TGI in the assay on DU-145 prostate, in the assay with SF-295 CNS, in the assay with HS 578T breast and in the assay on A498 renal was above 100 µM in each case.

With `O=C(O)/C(Cc1cn[nH]n1)=N\O`, the TGI with NCI-H23 lung, with HL-60(TB) leukemia, in the assay with NCI-H460 lung, with MOLT-4 leukemia, with MDA-MB-231 breast and in the assay with NCI-H522 lung was above 100 µM throughout. The TGI in the assay on DU-145 prostate, in the assay with SF-295 CNS, in the assay on HS 578T breast and with A498 renal was above 100 µM throughout.

Take `COc1ccc(C(=O)c2cc(C)c(OC)c(C)c2)c(OC)c1NC(C)=O`: the GI50 with NCI-H23 lung is 0.369 µM; with HL-60(TB) leukemia, 0.309 µM; in the assay with NCI-H460 lung, 0.3 µM; with MOLT-4 leukemia, 3.13 µM; in the assay on MDA-MB-231 breast, 0.363 µM; in the assay on NCI-H522 lung, 0.157 µM. Besides, the GI50 in the assay on DU-145 prostate was 0.0483 µM; with SF-295 CNS it was 0.046 µM; with HS 578T breast, 0.0715 µM; with A498 renal it was 0.0228 µM. In addition, the TGI is above 100 µM in the assay with NCI-H23 lung; 1.37 µM with HL-60(TB) leukemia; above 33.9 µM in the assay with NCI-H460 lung; above 100 µM in the assay on MOLT-4 leukemia; above 100 µM in the assay with MDA-MB-231 breast; above 100 µM in the assay with DU-145 prostate. Further, the values for the TGI in the assay on SF-295 CNS, in the assay with HS 578T breast and with A498 renal were above 100 µM, above 100 µM and 0.0795 µM, respectively.

Consider `CSc1nc2nc3c(nc2c(=O)n1C)C(=O)c1ccccc1C3=O`, for which the GI50 with NCI-H23 lung is 0.142 µM; with HL-60(TB) leukemia, 0.209 µM; in the assay on NCI-H460 lung it was 0.101 µM; with MOLT-4 leukemia it was 0.227 µM; in the assay with MDA-MB-231 breast it was 0.256 µM; with NCI-H522 lung it was 0.16 µM. Also, the GI50 in the assay with DU-145 prostate was 0.216 µM; in the assay with SF-295 CNS, 0.157 µM; in the assay with HS 578T breast it was 0.226 µM; in the assay with A498 renal, 0.186 µM. Also, the TGI is 0.422 µM in the assay with NCI-H23 lung; 0.514 µM in the assay on HL-60(TB) leukemia; 0.393 µM with NCI-H460 lung; 0.581 µM with MOLT-4 leukemia; 0.974 µM with MDA-MB-231 breast; 0.332 µM in the assay with NCI-H522 lung. Moreover, the TGI was 0.623 µM with DU-145 prostate, 0.315 µM in the assay with SF-295 CNS, 0.678 µM in the assay on HS 578T breast and 0.768 µM in the assay on A498 renal.

Consider `CS(=O)(=O)OCCCNCCCOS(C)(=O)=O`, for which the TGI with NCI-H23 lung is 5630 µM; in the assay on HL-60(TB) leukemia, 2540 µM; in the assay with NCI-H460 lung, 2450 µM; in the assay on MOLT-4 leukemia, 2340 µM; in the assay on MDA-MB-231 breast, 6120 µM; with NCI-H522 lung, 5510 µM. The TGI with DU-145 prostate worked out at 6440 µM; in the assay on SF-295 CNS, 4760 µM; in the assay with HS 578T breast, 8170 µM; in the assay with A498 renal it was 3630 µM.

In the case of `O=[N+]([O-])c1ccc(Cl)c(CNc2ncnc3c2ncn3C2CCCCO2)c1` (centres undefined), the TGI in the assay on NCI-H23 lung was above 100 µM; in the assay on HL-60(TB) leukemia, 73.2 µM; in the assay on NCI-H460 lung, 52.2 µM; with MOLT-4 leukemia, 88.2 µM; with MDA-MB-231 breast it was above 100 µM; in the assay on NCI-H522 lung it was above 100 µM. In addition, the TGI was above 100 µM in the assay on DU-145 prostate, above 100 µM in the assay on SF-295 CNS, above 100 µM with HS 578T breast and 43.9 µM in the assay on A498 renal.

For the compound `CCCc1cc(=O)n2c(C(=O)Nc3ccc(F)cc3)c(C(=O)Nc3ccc(F)cc3)sc2n1`, the GI50 is above 160 µM in the assay with NCI-H23 lung; above 160 µM in the assay on HL-60(TB) leukemia; 73.4 µM in the assay on NCI-H460 lung; above 160 µM with MOLT-4 leukemia; 4.8 µM with MDA-MB-231 breast; 73.3 µM in the assay on NCI-H522 lung. Moreover, the GI50 with DU-145 prostate was 124 µM; in the assay with SF-295 CNS, above 160 µM; in the assay on HS 578T breast, 2.58 µM; with A498 renal it was 46.4 µM. Further, the TGI in the assay with NCI-H23 lung is above 160 µM; in the assay with HL-60(TB) leukemia, above 160 µM; in the assay on NCI-H460 lung, above 160 µM; in the assay with MOLT-4 leukemia, above 160 µM; with MDA-MB-231 breast it was 23.8 µM; in the assay on NCI-H522 lung, above 160 µM. For the same compound, the TGI in the assay on DU-145 prostate is above 160 µM; in the assay on SF-295 CNS, above 160 µM; in the assay on HS 578T breast, 11.1 µM; in the assay on A498 renal, 137 µM.
